The test system of one data set is HMC3. As to the kind of experiment: Cytotoxicity against human HMC3 cells assessed as reduction in cell viability at 0.1 to 30 uM incubated for 48 hrs by acridine orange staining based microplate reader analysis. The class given is toxicity. The following applies: hmc3, 48 h, dose 0.1-30 µM.
Data set [1] concerns Mus musculus. The data set is described as follows: Antihyperalgesic activity in PGE2-induced wild type female CD-1 mouse assessed as increase in response latency at 60 mg/kg, sc and measured by paw pressure test. Format: functional, organism-based.
In data set [2] the test system is Mus musculus. As to the kind of experiment: Antiallodynic activity in capsaicin-induced wild-type female CD-1 mouse assessed as maximum antiallodynic effect administered subcutaneously and co-administered with PRE-084 measured after 45 mins relative to control. The following applies: route sc, 0.75 h. The class given is functional.
Data set [3] deals with Mus musculus. The data set is described as follows: Antihyperalgesic activity in PGE2-induced S1R knockout mouse at 60 mg/kg administered subcutaneously. Format: functional, organism-based. The note with it: route sc.
The subject of data set [4] is Mus musculus. As to the kind of experiment: Antiallodynic activity in capsaicin-induced wild-type female CD-1 mouse assessed as maximum antiallodynic effect at 30 mg/kg, sc co-administered with PRE-084 measured after 45 mins. Format: functional, organism-based.
For data set [5], the system named is Mus musculus. As to the kind of experiment: Antiallodynic activity in capsaicin-induced wild-type female CD-1 mouse administered subcutaneously and measured after 45 min. The class given is functional, organism-based. The note with it: route sc.
For data set [6], the system named is Mus musculus. The data set is described as follows: Antiallodynic activity in capsaicin-induced wild-type female CD-1 mouse at 5 to 30 mg/kg, sc measured after 45 mins relative to control. The class given is functional. The note with it: dose 5-30 mg/kg, 0.75 h.
The target in data set [7] is T1, Sigma non-opioid intracellular receptor 1 (Homo sapiens, UniProt Q99720).
T1 sequence (Q99720 whole entry): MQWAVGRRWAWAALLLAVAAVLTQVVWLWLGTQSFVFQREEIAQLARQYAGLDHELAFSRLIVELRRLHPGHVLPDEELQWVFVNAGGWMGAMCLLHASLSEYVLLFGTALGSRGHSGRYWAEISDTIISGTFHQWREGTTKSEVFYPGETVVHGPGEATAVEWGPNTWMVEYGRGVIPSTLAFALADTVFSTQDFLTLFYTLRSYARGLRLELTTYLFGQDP
Description: Binding affinity to S1R (unknown origin) assessed as inhibition constant
Data set [8] addresses T1, Sigma non-opioid intracellular receptor 1. The data set is described as follows: Displacement of [3H]-(+)-PTZ from S1R (unknown origin) assessed as inhibition constant by radioligand binding assay.
Data set [9] deals with Sigma intracellular receptor 2 (Homo sapiens, UniProt Q5BJF2). As to the kind of experiment: Binding affinity to S2R (unknown origin) assessed as inhibition constant.
Sigma intracellular receptor 2, sequence (Q5BJF2 whole entry): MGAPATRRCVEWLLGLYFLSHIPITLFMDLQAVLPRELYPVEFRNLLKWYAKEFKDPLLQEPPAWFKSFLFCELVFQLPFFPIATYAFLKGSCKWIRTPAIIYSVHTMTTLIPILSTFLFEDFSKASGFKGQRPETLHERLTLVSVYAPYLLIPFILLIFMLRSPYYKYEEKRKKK
The nature of data set [10]: Stability of compound in phosphate buffer at pH 7.4 assessed as half life. Format: physicochemical.
Data set [11] has as its target Voltage-gated inwardly rectifying potassium channel KCNH2 (Homo sapiens, UniProt Q12809). As to the kind of experiment: Inhibition of hERG in CHO-K1 cells. The class given is toxicity, cell-based. (In general: Block of hERG is tested as a sign of cardiac risk.)
In data set [12] the test system is Mus musculus. The data set is described as follows: Antiallodynic activity in capsaicin-induced wild-type female CD-1 mouse at 10 mg/kg, sc measured after 45 mins relative to control. The note with it: 0.75 h. The class given is functional.
A short description of data set [13]: Octanol/water partition coefficient, log P of the compound. Format: physicochemical.
Data set [14] in a line: Lipophilicity, log D of the compound in Octanol/PBS buffer at pH 7.4 at 5 to 150 uM by UV-Vis spectrophotometric analysis. Format: physicochemical. The note with it: dose 5-150 µM.
Data set [15] can be described thus: Aqueous solubility of compound by UHPLC-PDA analysis. The class given is physicochemical. The note with it: buffer.
Data set [16] deals with Mus musculus. As to the kind of experiment: Antihyperalgesic activity in PGE2-induced wild type female CD-1 mouse assessed as increase in response latency at 10 mg/kg, sc and measured by paw pressure test. The class given is functional, organism-based.
In data set [17] the test system is Mus musculus. The data set is described as follows: Antiallodynic activity in capsaicin-induced wild-type female CD-1 mouse at 5 to 10 mg/kg, sc measured after 45 mins. Format: functional, organism-based. The note with it: dose 5-10 mg/kg.
The test system of data set [18] is Mus musculus. The data set is described as follows: Antihyperalgesic activity in PGE2-induced S1R knockout mouse at 10 mg/kg administered subcutaneously. Format: functional, organism-based. The following applies: route sc.
Data set [19] in a line: Cytotoxicity against human WS1 cells assessed as reduction in cell viability incubated for 48 hrs by acridine orange staining based microplate reader analysis. Format: toxicity. The following applies: ws1, 48 h.
For data set [20], the system named is Mus musculus. As to the kind of experiment: Antiallodynic activity in capsaicin-induced wild-type female CD-1 mouse assessed as maximum antiallodynic effect at 10 mg/kg, sc co-administered with PRE-084 measured after 45 mins. Format: functional, organism-based.
The test system of data set [21] is Mus musculus. The data set is described as follows: Antiallodynic activity in capsaicin-induced wild-type female CD-1 mouse at 2 to 10 mg/kg, sc measured after 45 mins. The class given is functional, organism-based. The following applies: dose 2-10 mg/kg.
Data set [22] in a line: Lipophilicity, log D of the compound at pH 7.4. The following applies: buffer.
Data set [23] is described as follows: Lipophilicity, log P of the compound. The class given is physicochemical. The following applies: octanol/water.

SMILES strings stand for the structures. Values after ≈ are worked out from the molar mass of the structure shown. Active and inactive are the calls of the source.

Voltage-gated inwardly rectifying potassium channel KCNH2, sequence (Q12809 whole entry): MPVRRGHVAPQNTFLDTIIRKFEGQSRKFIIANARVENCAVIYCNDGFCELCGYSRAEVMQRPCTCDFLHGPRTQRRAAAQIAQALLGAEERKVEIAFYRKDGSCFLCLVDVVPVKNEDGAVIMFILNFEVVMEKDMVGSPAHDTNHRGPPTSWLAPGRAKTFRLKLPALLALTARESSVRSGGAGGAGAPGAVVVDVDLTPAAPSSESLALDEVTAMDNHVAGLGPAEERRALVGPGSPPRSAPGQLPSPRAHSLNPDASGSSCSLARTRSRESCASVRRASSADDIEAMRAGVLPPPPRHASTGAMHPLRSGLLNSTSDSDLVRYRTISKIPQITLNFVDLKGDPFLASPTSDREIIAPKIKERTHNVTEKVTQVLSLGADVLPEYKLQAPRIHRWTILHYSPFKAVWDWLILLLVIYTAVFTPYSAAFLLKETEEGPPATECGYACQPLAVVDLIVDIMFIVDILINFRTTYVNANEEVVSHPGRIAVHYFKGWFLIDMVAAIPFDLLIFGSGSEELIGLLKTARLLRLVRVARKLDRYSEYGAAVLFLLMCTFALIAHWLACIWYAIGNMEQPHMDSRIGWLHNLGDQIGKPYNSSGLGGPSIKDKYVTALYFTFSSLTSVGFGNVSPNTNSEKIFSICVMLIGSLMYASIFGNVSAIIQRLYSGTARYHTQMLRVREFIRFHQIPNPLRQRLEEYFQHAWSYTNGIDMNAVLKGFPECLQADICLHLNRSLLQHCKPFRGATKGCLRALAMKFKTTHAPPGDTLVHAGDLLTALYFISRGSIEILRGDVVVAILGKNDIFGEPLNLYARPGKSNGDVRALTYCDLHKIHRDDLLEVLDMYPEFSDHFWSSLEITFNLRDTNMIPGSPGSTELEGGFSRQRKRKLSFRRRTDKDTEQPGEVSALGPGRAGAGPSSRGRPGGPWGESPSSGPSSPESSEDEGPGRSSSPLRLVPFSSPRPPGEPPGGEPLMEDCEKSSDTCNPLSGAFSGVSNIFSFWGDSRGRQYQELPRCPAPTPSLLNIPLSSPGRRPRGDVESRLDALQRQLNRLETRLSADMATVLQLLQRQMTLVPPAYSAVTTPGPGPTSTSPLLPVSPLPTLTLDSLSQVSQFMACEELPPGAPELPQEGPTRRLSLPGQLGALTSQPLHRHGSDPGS

In the case of `CC(C)=CCN1CC[C@@]2(C)c3cc(O)ccc3C[C@@H]1[C@@H]2C`, the Activity result in the data set with HMC3 is “Non-toxic”.

`Cc1cc(OCCN2CCOCC2)nn1-c1ccc2ccccc2c1.Cl`: the result in the data set on Mus musculus [1] and in the data set on Mus musculus [4] was Active. For the same molecule, the Activity with Mus musculus [2] is 100%; with Mus musculus [5], “Dose-dependent-effect”; with Mus musculus [6], 100%. The result in the data set on Mus musculus [3] was inactive.

A word on the Ki: it is the dissociation constant of the complex between target and ligand, obtained from inhibition or displacement. As to `CN1CCN(CCc2ccc(Cl)c(Cl)c2)CC1`, the Activity entry in the data set on HMC3 is listed as “Non-toxic”. For the same molecule, the values for the Ki in [7], in data set [8] and in [9] were 14 nM, 14 nM and 6.5 nM, respectively.

Take `CCN(CC)C(=O)C(c1ccccc1)N(C)C1CCN(CCc2ccccc2)CC1` (racemic): the Ki in data set [8] stood at 108 nM.

Usually half-life stands for the time needed for the level to fall by half in the phase considered. As usually defined, the IC50 is the midpoint of a concentration-inhibition curve. A low value points to inhibition by little substance. As usually defined, the logP is the decadic logarithm of the partition coefficient of the neutral form, usually between octanol and water. Low readings indicate a more hydrophilic compound, high ones a more lipophilic compound. For orientation: logD means the decadic logarithm of the distribution of all forms, ionised or not, between an organic phase and buffer at a given pH. By solubility is commonly meant the dissolved amount per volume that the medium holds. Read a low solubility as a poorly soluble substance. Consider `CCOC(=O)C(c1ccccc1)N(C)C1CCN(Cc2ccccc2)CC1` (racemic), for which the half-life in data set [10] was 1.59 h. In [11], this molecule displayed a half-inhibitory concentration (IC50) of 1600 nM. For the same molecule, the Activity in the data set with Mus musculus [12] was 100%; in the data set on Mus musculus [5], “Dose-dependent-effect”; in the data set with HMC3, “Non-toxic”; in data set [19], “Non-toxic”. The logP in data set [13] stood at 1.79. The molecule further gave a log distribution coefficient (logD) at up to 150 µM in data set [14] of 1.72. Also, the concentration in solution in [15] (solubility) came to 1870 µg/mL (≈ 5.1 mM). Also, the outcome with Mus musculus [16], with Mus musculus [17] and in the data set on Mus musculus [20] was Active. For the same molecule, the result with Mus musculus [18] was inactive.

As for `CCOC(=O)C(c1ccccc1)N(C)C1CCN(CCc2ccccc2)CC1` (racemic), the outcome with Mus musculus [21], with Mus musculus [16] and with Mus musculus [20] was Active. Further, the figures for the Activity with Mus musculus [12], with Mus musculus [5] and in the data set with HMC3 were 100%, “Dose-dependent-effect” and “Non-toxic”, respectively. Also, in the data set on Mus musculus [18], the result was inactive. Further, the inhibition constant (Ki) in [8] is 9.9 nM.

In [7], `COc1cc2c(cc1OC)C(=O)C(CC1CCN(Cc3ccccc3)CC1)C2` (configuration not stated) [DONEPEZIL] yielded an inhibition constant (Ki) of 15 nM.

On to `O=C(CCCN1CCC(O)(c2ccc(Cl)cc2)CC1)c1ccc(F)cc1` [HALOPERIDOL], for which the log distribution coefficient (logD) in data set [22] turned out to be 3.99. Also, the log partition coefficient (logP) in data set [23] was 4.03.

For `COc1ccc(CCN2CCN(CCCc3ccccc3)CC2)cc1OC` [[11C]SA4503], the Ki in data set [9] is 90 nM.
